Measured values from US8188090B2, “Naphthylacetic acids” (Hoffman-La Roche Inc., priority 2008, dated 2012).

Tests used:
human CRTH2 [1] = molecular target: T1, human CRTH2 (Homo sapiens, UniProt Q9Y5Y4); assay: Calcium Flux Assay Using Fluorometric Imaging Plate Reader (FLIPR); format: cell-based; set-up: expressed in transfected cells; host or cells: CHO-K1 (previously transfected with G-alpha 16); settings: CHO-K1 cells transfected with G-alpha 16 and human CRTH2 receptor; inhibition of ligand (DK-PGD2) induced Ca2+ flux
T1 sequence (Q9Y5Y4 1-395): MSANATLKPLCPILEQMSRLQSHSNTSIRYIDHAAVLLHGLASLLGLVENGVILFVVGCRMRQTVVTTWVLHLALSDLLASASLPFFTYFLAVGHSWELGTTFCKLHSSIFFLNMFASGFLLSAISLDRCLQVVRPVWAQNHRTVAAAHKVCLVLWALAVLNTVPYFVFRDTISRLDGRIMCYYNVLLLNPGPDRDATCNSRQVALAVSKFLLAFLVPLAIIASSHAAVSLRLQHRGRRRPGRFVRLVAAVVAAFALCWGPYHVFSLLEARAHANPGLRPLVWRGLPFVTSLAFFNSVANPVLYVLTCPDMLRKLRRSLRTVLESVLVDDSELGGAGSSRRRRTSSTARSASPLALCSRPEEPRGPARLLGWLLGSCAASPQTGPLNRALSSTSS
Method: Calcium Flux Assay Using Fluorometric Imaging Plate Reader Cell Culture Conditions:
CHO-K1 cells previously transfected with G-alpha 16 were subsequently transfected with the human CRTH2 receptor and the neomycin resistance gene. Following selection in 800 μg/mL G418 (geneticin), individual clones were assayed for their receptor expression based on staining with an anti human CRTH2 IgG, followed by assaying for their response to 13,14-dihydro-15-keto Prostaglandin D2 (DK-PDG2) (ligand) in the Ca^2+Flux assay. Positive clones were then cloned by limiting dilution cloning. The transfected cells were cultured in Ham's F-12 medium supplemented with 10% fetal bovine serum, 2 mM glutamine, 100 U/mL penicillin/100 μg/mL streptomycin, 200 μg/mL hygromycin B, and 800 μg/mL G418 (geneticin). Cells were harvested with trypsin-EDTA (trypsin-ethylenediaminetetraacetic acid) and counted using ViaCount® reagent (from Guava Technologies, Inc. which contains two DNA-binding dyes that enable the reagent user to distinguish between viable and non-viable cells). The cell suspension volume was adjusted to 2.5×10^5 cells/mL with complete growth media. Aliquots of 50 μL were dispensed into BD Falcon™ 384 well black/clear microplates (from BD Biosciences, a division of Becton, Dickinson and Company) and the microplates were placed in a 37° C. CO2 incubator overnight. The following day, the microplates were used in the assay.
Loading Buffer containing dye (from the FLIPR® Calcium 3 Assay Kit from Molecular Devices, a division of MDS Analytical Technologies and MDS Inc.) was prepared by dissolving the contents of one bottle into 200 mL Hank's Balanced Salt Solution containing 20 mM HEPES (4-(2-hydroxyethyl)-1-piperazineethanesulfonic acid) and 2.5 mM probenecid. Growth media was removed from the cell plates and 25 μL of Hank's Balanced Salt Solution (HBSS) containing 20 mM HEPES, 0.05% BSA and 2.5 mM probenecid was added to each well followed by 25 μL of diluted dye using a Multidrop dispenser. The plates were then incubated for 1 hour at 37° C.
During the incubation, test compound plates were prepared by adding 90 μL of HBSS/20 mM HEPES/0.005% BSA buffer to the 2 μL of serial diluted compounds. To prepare serial diluted compounds, 20 mM stocks of compounds were dissolved in 100% DMSO. The compound dilution plate was set up as follows: well #1 received 5 μL of compound plus 10 μL of DMSO. Wells 2-10 received 10 μL of DMSO. 5 μL was mixed and transferred from well #1 into well #2. 1:3 serial dilutions were continued out 10 steps. […]
After incubation, both the cell and “assay plate” plates were brought to the fluorometric imaging plate reader (FLIPR®) and 20 μL of the diluted compounds were transferred to the cell plates by the FLIPR®. […] During the assay, fluorescence readings were taken simultaneously from all 384 wells of the cell plate every 1.5 seconds. Five readings were taken to establish a stable baseline, then 20 μL of sample was rapidly (30 μL/sec) and simultaneously added to each well of the cell plate. The fluorescence was continuously monitored before, during and after sample addition for a total elapsed time of 100 seconds. Responses (increase in peak fluorescence) in each well following agonist addition were determined. The initial fluorescence reading from each well, prior to ligand stimulation, was used as a zero baseline value for the data from that well. The responses were expressed as % inhibition of the buffer control. […]

human CRTH2 [2] = molecular target: T1, human CRTH2; assay: Human CRTH2 Receptor Binding Assay (whole cell, [3H]ramatroban); set-up: expressed in transfected cells; host or cells: CHO-K1; settings: whole CHO-K1 cells stably expressing human CRTH2 and G-alpha16; 20 nM [3H]ramatroban; 1 hour, room temperature

In the case of CCS(=O)(=O)N1CCC(Oc2cc(CC(=O)O)cc3ccc(F)cc23)CC1 [Example 4-2, [4-(1-Ethanesulfonyl-piperidin-4-yloxy)-6-fluoro-naphthalen-2-yl]-acetic acid], the IC50 (human CRTH2 [1]) is reported as > 5000 nM and the IC50 (human CRTH2 [2]) is reported as 20.3 nM.

In the case of Cc1c(CC(=O)O)cc2ccc(F)cc2c1C(=O)N1CCN(c2ccccc2C(F)(F)F)CC1 [Example 2-15, {6-Fluoro-3-methyl-4-[4-(2-trifluoromethyl-phenyl)-piperazine-1-carbonyl]-naphthalen-2-yl}-acetic acid], the IC50 (human CRTH2 [1]) is reported as > 5000 nM and the IC50 (human CRTH2 [2]) is reported as 253 nM.

For CC(=O)N1CCC(Oc2cc(CC(=O)O)cc3ccc(F)cc23)CC1 [Example 5-1, [4-(1-Acetyl-piperidin-4-yloxy)-6-fluoro-naphthalen-2-yl]-acetic acid], the IC50 (human CRTH2 [1]) was > 5000 nM and the IC50 (human CRTH2 [2]) was 163 nM.

For COc1ccccc1N1CCN(C(=O)c2c(C)c(CC(=O)O)cc3ccc(F)cc23)CC1 [Example 2-8, {6-Fluoro-4-[4-(2-methoxy-phenyl)-piperazine-1-carbonyl]-3-methyl-naphthalen-2-yl}-acetic acid], the IC50 (human CRTH2 [1]) was > 5000 nM and the IC50 (human CRTH2 [2]) was 458 nM.

In the case of CCc1ccccc1N1CCN(C(=O)c2c(C)c(CC(=O)O)cc3ccc(F)cc23)CC1 [Example 2-10, {4-[4-(2-Ethyl-phenyl)-piperazine-1-carbonyl]-6-fluoro-3-methyl-naphthalen-2-yl}-acetic acid], the IC50 (human CRTH2 [1]) is reported as > 5000 nM and the IC50 (human CRTH2 [2]) is reported as 450 nM.
